Laboratory results published in PubChem BioAssay (NCI).
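Cultured in 96-well plates, cells were exposed to test compound for 48 hours across five concentrations. GI50: concentration for 50% inhibition of growth. TGI denotes the concentration required for complete inhibition of growth.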

Columns and labels:
Assay in all cases: DTP human tumour cell line panel, 48 h
[1] = test system: COLO 205 colon
[2] = test system: IGROV1 ovarian
[3] = test system: RXF 393 renal
[4] = test system: M14 melanoma
[5] = test system: OVCAR-5 ovarian
[6] = test system: HT29 colon
[7] = test system: NCI-H226 lung
[8] = test system: SNB-75 CNS
[9] = test system: HCT-15 colon
[10] = test system: OVCAR-4 ovarian

Row | Structure (SMILES) | GI50 [1] [µM] | TGI [1] [µM] | GI50 [2] [µM] | TGI [2] [µM] | GI50 [3] [µM] | TGI [3] [µM] | GI50 [4] [µM] | TGI [4] [µM] | GI50 [5] [µM] | TGI [5] [µM] | GI50 [6] [µM] | TGI [6] [µM] | GI50 [7] [µM] | TGI [7] [µM] | GI50 [8] [µM] | TGI [8] [µM] | GI50 [9] [µM] | TGI [9] [µM] | GI50 [10] [µM] | TGI [10] [µM]
1 | Oc1c(CN2CCN(c3ccccc3F)CC2)cc(Br)c2cccnc12 | 16.1 | 55 | 0.808 | 14.5 | 2.05 | 19.1 | 0.924 | 16.5 | 5.36 | 49 | 11.3 | 40.5 | 1.17 | 9.5 | 1.91 | > 100 | 0.143 | > 100 | – | –
2 | O=S(=O)(Nc1ccccn1)c1ccc(N=Nc2ccc(O)c3ncccc23)cc1 | 7.62 | 26.2 | 1.35 | 16.5 | 1.24 | 11.9 | 1.21 | 5.55 | 3.53 | 18.7 | 4.53 | 19.3 | 2.96 | 10.8 | 0.675 | 3.33 | 0.844 | 15.7 | 2.33 | 12.2
3 | c1ccc2c(CNCCCCCCCCCCCCNCc3cccc4ccccc34)cccc2c1 | – | > 100 | – | 3.39 | – | 2.66 | – | 3.29 | – | 2.94 | – | 3.03 | – | 4.57 | – | 3.21 | – | 3.08 | – | 3.05
4 | Cc1ccccc1NC(=O)c1ccc([N+](=O)[O-])cc1 | – | > 100 | – | > 100 | – | > 100 | – | > 100 | – | > 100 | – | > 100 | – | > 100 | – | > 100 | – | > 100 | – | > 100
5 | CCOC(=O)C(C(=O)OCC)=c1sc(=C(C(=O)OCC)C(=O)OCC)s1 | – | > 100 | – | > 100 | – | > 100 | – | > 100 | – | > 100 | – | > 100 | – | – | – | > 100 | – | > 100 | – | > 100
6 | C[C@@H]1OCC2(CCN(c3cnc(Sc4ccnc(N)c4Cl)c(N)n3)CC2)[C@@H]1N | > 100 | > 100 | 0.801 | > 100 | 3.46 | > 67.6 | > 100 | > 100 | > 100 | > 100 | > 100 | > 100 | – | > 100 | 15.1 | > 100 | > 100 | > 100 | 26.9 | > 100
7 | Cc1c(CC/C(=N\Nc2ccc([N+](=O)[O-])cc2[N+](=O)[O-])c2ccccc2)c2ccccc2n1C | – | > 100 | – | > 100 | – | > 83.6 | – | > 100 | – | > 100 | – | > 100 | – | > 100 | – | > 100 | – | > 100 | – | > 100
8 | COc1ccc(C(c2cc3c(cc2O)OCO3)N2CCOCC2)cc1OC (stereo not drawn) | – | 28.8 | – | 29.6 | – | 58.2 | – | 24.9 | – | 21.5 | – | 26 | – | 24.6 | – | 31.8 | – | 15.8 | – | 29
9 | CC(C)C1COC(c2ccc3ccccc3c2-c2c(O[Si](C)(C)C(C)(C)C)ccc3ccccc23)=N1 (stereo not drawn) | – | 33.6 | – | 35.4 | – | 34.7 | – | 29.2 | – | 32.6 | – | 29 | – | 26.4 | – | 32.5 | – | 46.7 | – | 36.1
10 | Nc1ccc(-c2ccc(-c3nc4cc(Cl)c(Cl)cc4[nH]3)cc2)cc1 | 0.0953 | > 37.7 | 12.1 | > 100 | 5.71 | 38.8 | 0.0456 | > 37.1 | 26.2 | > 100 | 1.42 | > 100 | 4.07 | > 41.7 | 16.3 | 55.9 | 0.406 | > 100 | 3.01 | > 100
11 | O=c1ccnc(SCc2ccc(Cl)cc2)[nH]1 | – | > 100 | – | > 100 | – | > 100 | – | > 100 | – | > 100 | – | > 100 | – | – | – | > 100 | – | > 100 | – | > 100
12 | CC(C)(C)C(=O)/C=C/c1cccc(Oc2ccccc2)c1 | – | – | – | 78 | – | 30 | – | 34.7 | – | 32.8 | – | 22.1 | – | 33.4 | – | 64.6 | – | 40.4 | – | –
13 | COC(=O)[C@@]12C=CC(=O)[C@H]3C[C@@H](C(C(C)C)C1)[C@]32OC (stereo partly drawn) | – | > 100 | – | > 100 | – | > 100 | – | > 100 | – | > 100 | – | > 100 | – | – | – | > 100 | – | > 100 | – | > 100
14 | COC1=C(OC)[C@]2(OC)c3c(O)c(OC)c4c(c3O[C@@]23O[C@@H](c2ccccc2)CC=C3C1=O)[C@@H](O)C[C@H](c1ccccc1)O4 | – | – | 0.932 | 2.44 | 0.199 | 0.406 | 0.358 | 1.17 | 1.64 | 3.18 | 0.224 | 0.565 | 0.286 | 1.46 | 0.693 | 1.98 | 0.157 | 0.34 | 1.48 | 3.38
15 | FC(F)(F)c1cccc(C2SCc3nc4ccccc4n32)c1 (stereo not drawn) | – | > 100 | – | > 100 | – | > 100 | – | – | – | > 100 | – | > 100 | – | > 100 | – | > 100 | – | – | – | –
16 | C/C(=C\c1ccn(-c2ccc(N)cc2F)n1)[C@@H]1C[C@@H]2O[C@]2(C)CCC[C@H](C)[C@H](O)[C@@H](C)C(=O)C(C)(C)[C@@H](O)CC(=O)O1 | 0.0172 | 0.442 | 0.0448 | > 50 | 0.0286 | 0.404 | – | – | 0.116 | > 50 | 0.0173 | > 29 | 5.45 | > 50 | 0.00766 | 0.206 | 0.0226 | > 50 | 0.4 | > 50
17 | Cc1ccc(C2=NN(c3ccc(S(N)(=O)=O)cc3)C(c3cn(-c4ccccc4)nc3-c3ccccc3)C2)cc1 (stereo not drawn) | 15.1 | > 100 | 28.3 | > 100 | 3.81 | 17.8 | 8.54 | > 100 | 70.4 | > 100 | 4.8 | > 100 | 30.7 | > 100 | 80.5 | > 100 | 7.53 | > 100 | – | –
18 | Nc1nc(=Nc2ccccc2)ss1 | – | > 100 | – | > 100 | – | > 100 | – | > 100 | – | > 100 | – | > 100 | – | > 100 | – | > 100 | – | – | – | > 100
19 | Cc1ccc(NC(=O)c2cc3ccccc3cc2O)c(C)c1.Cc1ccc(NC(=O)c2cc3ccccc3cc2[O-])c(C)c1.[Ni+2] | 6.65 | 24.6 | – | – | 1.9 | 6.37 | 4.31 | 13.9 | 4.25 | 17.9 | 3.14 | 10.9 | 3.49 | 8.37 | 2.78 | 6.7 | 3.24 | 17.2 | 3.88 | 25.4
20 | Cc1cc2nc(C(Cl)Cl)nc(-c3ccccc3)n2n1 | 1.77 | 4.56 | 5.24 | 35.1 | 2.27 | 5.75 | – | – | 3.3 | 17.1 | 2.77 | 13.9 | > 100 | > 100 | 1.75 | 12.9 | 4.11 | 20.8 | 2.19 | 7.51
21 | CCCN1C(=O)CNC(=O)c2[nH]cnc21 | – | > 100 | – | > 100 | – | > 100 | – | > 100 | – | > 100 | – | > 100 | – | > 100 | – | > 100 | – | > 100 | – | –
22 | O=C(Cc1ccccc1)NS(=O)(=O)c1ccccc1 | – | > 100 | – | > 100 | – | > 100 | – | > 100 | – | > 100 | – | > 100 | – | > 100 | – | > 100 | – | – | – | > 100
23 | Nc1nc(-c2cccs2)cs1 | – | > 100 | – | > 100 | – | > 100 | – | > 100 | – | > 100 | – | > 100 | – | – | – | > 100 | – | > 100 | – | > 100
24 | CC#CC(=O)N1CC[C@@H](n2c(=O)n(-c3ccc(Oc4ccccc4)cc3)c3c(N)ncnc32)C1 | 36.6 | > 100 | 15.2 | 60.8 | 37.3 | > 100 | – | – | 46.6 | > 100 | 34.7 | > 100 | 23.1 | > 100 | 29.8 | > 100 | 26.3 | > 100 | 20.4 | > 100
25 | O=NN(CCCl)C(=O)N[C@H]1CCCC[C@@H]1Cl | – | > 100 | – | > 100 | – | > 100 | – | > 100 | – | – | – | > 100 | – | > 100 | – | > 100 | – | > 100 | – | > 100
26 | Nc1ccccc1C#Cc1ccccc1C#Cc1cnccn1 | – | – | – | – | 85.4 | > 100 | 16 | 29.5 | 18.6 | 43.5 | 24.8 | 53 | 17.2 | 32.8 | 24.6 | 84.8 | 16.6 | 34.6 | 20.6 | 72.3
